Data on nine compounds can be found in ChEMBL document CHEMBL1141643, “Synthesis and SAR of novel 1,1-dialkyl-2(1H)-naphthalenones as potent HCV polymerase inhibitors” (Bioorg Med Chem Lett, 2008).

A short description of assay [1]: Inhibition of HCV 1a RNA dependent RNA polymerase. More on the design: species or system Hepacivirus hominis.
Another assay deals with Hepatitis C virus. In words: Inhibition of HCV 1a replication by cell based assay. It is filed as functional, organism-based, Hepacivirus hominis.

Take `CC(C)(C)CCCCC1(C)C(=O)C(C2=NS(=O)(=O)c3cc(NS(C)(=O)=O)ccc3N2)=C(O)c2ccccc21` (stereo not given): in assay [1], the IC50 – broadly, the concentration at which inhibition is half-maximal – worked out at 138 nM.

As for `CC(C)CCC1(C)C(=O)C(C2=NS(=O)(=O)c3cc(NS(C)(=O)=O)ccc3N2)=C(O)c2ccccc21` (stereo not given), the EC50 (in general, the concentration needed to bring the measured effect to its halfway point) with Hepatitis C virus amounted to 38 nM. The IC50 in assay [1] came out at 7 nM.

For `CCCCC1(C)C(=O)C(C2=NS(=O)(=O)c3cc(NS(C)(=O)=O)ccc3N2)=C(O)c2ccccc21` (stereo not given), the midpoint of the response with Hepatitis C virus, the EC50, lay at 52 nM. The IC50 in assay [1] turned out to be 15 nM.

Turning to `CC1(CC2CCCCC2)C(=O)C(C2=NS(=O)(=O)c3cc(NS(C)(=O)=O)ccc3N2)=C(O)c2ccccc21` (stereo not given), in the assay with Hepatitis C virus, the EC50 worked out at 121 nM. The IC50 in assay [1] turned out to be 13 nM.

As for `CC(C)(C)CCC1(C)C(=O)C(C2=NS(=O)(=O)c3cc(NS(C)(=O)=O)ccc3N2)=C(O)c2ccccc21` (stereo not given), in the assay with Hepatitis C virus, a half-maximal response (EC50) required 8 nM. Besides, the IC50 in assay [1] was found to be 10 nM.

In the case of `CCCC1(CCC)C(=O)C(C2=NS(=O)(=O)c3cc(NS(C)(=O)=O)ccc3N2)=C(O)c2ccccc21`, the EC50 in the assay on Hepatitis C virus is 603 nM. Further, 99 nM corresponded to half-maximal inhibition in assay [1] (IC50).

With `CCCC1(C)C(=O)C(C2=NS(=O)(=O)c3cc(NS(C)(=O)=O)ccc3N2)=C(O)c2ccccc21` (stereo not given), in assay [1], the IC50 was determined as 20 nM.

For the compound `CCC1(CCC(C)C)C(=O)C(C2=NS(=O)(=O)c3cc(NS(C)(=O)=O)ccc3N2)=C(O)c2ccccc21` (stereo not given), the EC50 with Hepatitis C virus worked out at 49 nM. Further, the IC50 in assay [1] is 17 nM.

With `CC1(CCCC2CCCCC2)C(=O)C(C2=NS(=O)(=O)c3cc(NS(C)(=O)=O)ccc3N2)=C(O)c2ccccc21` (stereo not given), in assay [1], 791 nM corresponded to half-maximal inhibition (IC50).
